In US6559158B1, “Use of methylnaltrexone and related compounds to treat chronic opioid use side affects” (UR Labs, Inc., priority 1997, dated 2003):
“Also recorded” adds a separate entry of the source.

What was measured:
[1] = tested on: chronic methadone subjects; assay: Example 3: oral methylnaltrexone, opioid withdrawal and adverse effects; details: oral 0.3-3.0 mg/kg
Description: (§1) Since oral medication is a safer and more convenient way to deliver drugs than is intravenous administration, the efficacy of oral MNTX in relieving constipation in methadone maintained patients was evaluated. Twelve constipated adults (≦2 stool/week) were enrolled. Their daily methadone dose was 73.3±16.2 mg (41-100 mg), mean±SD (range). On day 1 at 9AM, subjects ingested 10 g lactulose (Solvay Pharmaceuticals) to assess oral-cecal transit time as described above, and a placebo capsule. On day 2 at 9AM, subjects again received lactulose, and a capsule containing methylnaltrexone (Mallinckrodt). Ascending oral methylnaltrexone doses (0.3, 1.0, and 3,0 mg/kg) were given to 3 groups of 4 subjects per group. Drug administrations were single-blinded to the subject. Laxation response and potential opioid withdrawal were recorded and blood samples were collected.

[2] = tested on: chronic methadone subjects with methadone-induced constipation; assay: Example 2: double-blind placebo-controlled trial of intravenous methylnaltrexone, laxation response; details: for methylnaltrexone dose received (infusion stopped at bowel movement): mean±SD, range 0.01-0.37
[3] = tested on: morphine-induced changes in oral-cecal transit time; assay: Example 4: morphine-induced delay of oral-cecal transit time in subjects given opioids non-chronically; type: in vivo, human; details: 0.45 mg/kg methylnaltrexone plus 0.05 mg/kg morphine
Description: Sessions were separated by at least 1 week. Each session lasted approximately 7 hours, and the subjects received one of three injections: (1) placebo plus placebo, (2) placebo plus 0.05 mg/kg morphine, or (3) 0.45 mg/kg methylnaltrexone plus 0.05 mg/kg morphine. Injection I was given at the first session, and the subjects were blinded to the medication. Injections 2 and 3 were given in a random order, and the subjects and observers were blinded to the medication. Injection assignments were prepared by random selection on a computer and were sealed in envelopes.
After completion of the above three injections, we asked six of the subjects, beginning with those who had completed the study last, to return for a fourth injection (0.45 mg/kg methylnaltrexone plus 0.1 mg/kg morphine). This was done to evaluate the effects of methylnaltrexone with a higher does of morphine.
Results of the hydrogen breath test after different injections were analyzed with the use of the Wilcoxon matched-pairs signed-rank test, with p<0.05 considered to be statistically significant.

normal volunteers [4] = assay: FIG. 5: oral-cecal transit time of normal volunteers given MNTX; type: in vivo, human; details: normal subjects, doses 2.1 mg/kg to 6.4 mg/kg (FIG. 5)
Description: FIG. 5 is a comparison of oral-cecal transit times of normal volunteers and methadone maintenance subjects showing the increased responsiveness of chronic opioid patients to MNTX. At doses ranging from 2.1 mg/kg to 6.4 mg/kg, normal subjects experienced about a 15-20% reduction in oral-cecal transit time, while at a dose of 3.0 mg/kg, methadone subjects experienced a greater than 35% reduction in oral-cecal transit time.

normal volunteers [5] = details: 0.45 mg/kg iv, cited from earlier work
[6] = humans; cited from earlier work
[7] = tested on: chronic methadone subjects; assay: Example 2: oral-cecal transit time (lactulose hydrogen breath test); type: in vivo, human
Description: (§2) The oral-cecal transit time was assessed by the pulmonary hydrogen (H2) measurement technique, which measures pulmonary H2 that is produced when unabsorbed lactulose is fermented by colonic bacteria and excreted in the breath. This H2 production is reflected by a concomitant increase in breath H2 excretion. […] Dis. Sci., 32:829-832 (1987)). Hydrogen breath tests were conducted every 15 min until oral-cecal transit time was determined.
The oral-cecal transit time was assessed as in Example 1.

[8] = tested on: chronic methadone subjects; assay: Example 1: oral-cecal transit time (lactulose hydrogen breath test); type: in vivo, human; details: 150 min after placebo
Description: (§3) Vital signs were obtained at 0, 5, 10, 30, 60, 90 and 120 min after each test drug administration. For oral-cecal transit time measurement, 10 g lactulose (Solvay Pharmaceuticals, Marietta, Ga.) was administered orally at 09:00 h of Day 1, Day 5 and Day 8 for Subject 1; of Day 1 for Subject 2, and of Day 1, Day 3 and Day 5 for Subjects 3 and 4. Illicit drug use was monitored by random urine drug screens.
as §2

[9] = Absorption after oral administration of non-enteric coated compound; type: in vivo
Description: Methylnaltrexone is rapidly absorbed after oral administration from the stomach and bowel. Initial plasma levels of the drug are seen within 5-10 minutes of the administration of non-enteric coated compound. Addition of an enteric coating which prevents gastric absorption is associated with lower plasma levels of the methylnaltrexone.

[10] = tested on: chronic methadone subjects; assay: Example 1: side effects, abdominal cramping and central opioid withdrawal; type: in vivo, human
Description: as §3
To evaluate possible opioid withdrawal with methylnaltrexone, subjects were asked to rate on a 5-point scale from 0 (not at all) to 4 (extremely) an […] checklist Withdrawal Scale (Fraser et al., J Pharmacol Exp. Ther., 133:371-387 (1961); Jasinski, Drug Addiction J., 197-258 (1977); both herein incorporated by reference). Items to be rated were: muscle cramps, flushing, painful joints, yawning, restless, watery eyes, runny nose, chills or gooseflesh, sick to stomach, sneezing, abdominal cramps, irritable, backache, tense and jittery, sweating, depressed/sad, sleepy, shaky (hands), hot or cold flashes, and bothered by noises. The ratings for individual items were summed for a total score for each scale. The total scores were compared before and after methylnaltrexone administration to see if there was a significant difference.

[11] = tested on: constipated methadone maintained patients; assay: Example 3: oral methylnaltrexone, laxation response; type: in vivo, human; details: for subjects who had a bowel movement: 4 subjects; for time to bowel movement after oral compound: mean±SD
Description: as §1

[12] = Example 2: plasma levels and urinary excretion of methylnaltrexone; type: in vivo, human; details: for Peak plasma level: iv, mean±SD
Description: After each test drug administration, seven blood samples (5 ml each) were obtained at time 0, 5, 30 min, and 1, 2, 4, 8 h, and three urine samples were collected at time 0, 2, and 4 h. Plasma and urine methylnaltrexone levels were determined by an HPLC technique with a detection limit of 2 ng/ml (Kim et al., 1989; Yuan et al., Clin. Pharmacol Ther., 59:469-475 (1996); both herein incorporated by reference). […] Subjects' bowel movements were witnessed and recorded by a research nurse.
Blood and Urine Sampling and Analysis were Performed as in Example 1.

[13] = Subjects 3 and 4, 0.05-0.15 mg/kg iv twice daily, 4 days
[14] = iv methylnaltrexone, #1 0.45 mg/kg bid, #2 0.45 mg/kg, #3 and #4 0.05-0.15 mg/kg bid, iv methylnaltrexone 0.45 mg/kg
[15] = iv methylnaltrexone, #1 0.45 mg/kg bid, #2 0.45 mg/kg, #3 and #4 0.05-0.15 mg/kg bid, iv methylnaltrexone 0.05-0.15, bid mg/kg
[16] = iv methylnaltrexone, #1 0.45 mg/kg bid, #2 0.45 mg/kg, #3 and #4 0.05-0.15 mg/kg bid, iv methylnaltrexone 0.05-015, bid mg/kg
[17] = iv methylnaltrexone, #1 0.45 mg/kg bid, #2 0.45 mg/kg, #3 and #4 0.05-0.15 mg/kg bid, iv methylnaltrexone 0.45, bid mg/kg

C[N@+]1(CC2CC2)CC[C@]23c4c5ccc(O)c4O[C@H]2C(=O)CC[C@@]3(O)[C@H]1C5 [methylnaltrexone, N-methylnaltrexone bromide]
opioid withdrawal ([1]; any subjects): no opioid withdrawal
abdominal cramping ([1]; most subjects): very mild abdominal cramping
adverse effects [1]: no adverse effects were reported
methylnaltrexone dose received (infusion stopped at bowel movement) ([2]; Day 1, iv): 0.09 ± 0.10 mg/kg
methylnaltrexone dose received (infusion stopped at bowel movement) ([2]; Day 2, iv): 0.10 ± 0.10 mg/kg
Bowel movement Satisfaction ([2]; MNTX group, end of study, listed as MNTX): Very satisfied; also recorded: Somewhat satisfied
satisfaction with bowel movement activity at the end of the study ([2]; methylnaltrexone group): all 11 subjects were satisfied
subjects whose stool was soft to loose and in large quantity ([2]; methylnaltrexone group): over 90%
oral-cecal transit time ([3]; 12 subjects, mean±SD, not significant vs baseline 104.6±31.1): 106.3 ± 39.8 min
prevention of morphine-induced changes in oral-cecal transit time ([3]; p<0.01 vs morphine alone): 97%
reduction in oral-cecal transit time (normal volunteers [4]): 15-20%
effect on opioid-induced delay in oral-cecal transit time (normal volunteers [5]; healthy volunteers, acute single doses): effectively prevented opioid-induced delay in oral-cecal transit time
effect on analgesia (normal volunteers [5]; healthy volunteers): without affecting analgesia
Laxation response (normal volunteers [5]; normal opioid naive subjects): without any laxation response
blood-brain barrier passage [6]: does not cross the blood-brain barrier
de-methylation [6]: do not appreciably de-methylate
oral-cecal transit time after study drug ([7]; methylnaltrexone group n=11, Day 2, iv, mean±SD, range 30-105, baseline 132.3±36.0): 54.5 ± 19.3 min
average change in oral-cecal transit time from baseline ([7]; methylnaltrexone group n=11, P<0.001 vs placebo group): -77.7 ± 37.2 min
oral-cecal transit time after methylnaltrexone, at the end of the study ([8]; Subject 1, 0.45 mg/kg iv bid): 90 min
oral-cecal transit time after methylnaltrexone, at the end of the study ([8]; Subject 3, 0.05-0.15 mg/kg iv bid): 60 min
oral-cecal transit time after methylnaltrexone, at the end of the study ([8]; Subject 4, 0.05-0.15 mg/kg iv bid): 60 min
time to initial plasma levels after oral administration [9]: 5 to 10 min
side effects ([10]; Subject 1, 0.45 mg/kg iv, 7 days of administration): did not experience any significant side effects
abdominal cramping ([10]; Subject 1, 0.45 mg/kg iv, after each injection): mild abdominal cramping
signs of systemic withdrawal (lacrimation, diaphoresis, mydriasis, hallucinations) ([10]; Subject 2, single dose 0.45 mg/kg iv): no signs of systemic withdrawal
abdominal cramping ([10]; Subject 2, single dose 0.45 mg/kg iv over 1 min): severe abdominal cramping
abdominal cramping [10, 13]: mild abdominal cramping
side effects [10, 13]: No significant side effects were observed
Central opioid withdrawal [10, 14]: No
abdominal cramping [10, 14]: Severe
Central opioid withdrawal [10, 15]: No
abdominal cramping [10, 15]: Mild
Central opioid withdrawal [10, 16]: No
abdominal cramping [10, 16]: Mild
Central opioid withdrawal [10, 17]: No
abdominal cramping [10, 17]: Mild
subjects who had a bowel movement ([11]; oral 0.3 mg/kg): 3 out of 4
time to bowel movement after oral compound ([11]; oral 0.3 mg/kg, range 8-24 hr): 18.0 ± 8.7 h
subjects who had a bowel movement ([11]; oral 1.0 mg/kg): All subjects
time to bowel movement after oral compound ([11]; oral 1.0 mg/kg, range 3-24 hr): 12.3 ± 8.7 h
subjects who had a bowel movement ([11]; oral 3.0 mg/kg): All subjects
time to bowel movement after oral compound ([11]; oral 3.0 mg/kg, range 1.2-10 hr): 5.2 ± 4.5 h
Peak plasma level ([12]; Day 1, 11 subjects, range 30-774): 162 ± 237 ng/mL
percentage of intravenous dose excreted unchanged in urine from 0 to 4 hr ([12]; Day 1, mean±SD, range 9.6-39.9): 23.7±10.5%
Peak plasma level ([12]; Day 2, 11 subjects, range 33-658): 166 ± 177 ng/mL
percentage of intravenous dose excreted unchanged in urine from 0 to 4 hr ([12]; Day 2, mean±SD, range 13.2-73.6): 37.6±17.8%
